Results: the Kinase Knowledgebase extract (Sharma et al. 2016)

What follows are molecules tested against ROCK2 (human) (UniProt O75116) (assay: Inhibition of ROCK2 Kinase Activity).
Sequence of ROCK2 (human) (O75116 whole entry, looked up): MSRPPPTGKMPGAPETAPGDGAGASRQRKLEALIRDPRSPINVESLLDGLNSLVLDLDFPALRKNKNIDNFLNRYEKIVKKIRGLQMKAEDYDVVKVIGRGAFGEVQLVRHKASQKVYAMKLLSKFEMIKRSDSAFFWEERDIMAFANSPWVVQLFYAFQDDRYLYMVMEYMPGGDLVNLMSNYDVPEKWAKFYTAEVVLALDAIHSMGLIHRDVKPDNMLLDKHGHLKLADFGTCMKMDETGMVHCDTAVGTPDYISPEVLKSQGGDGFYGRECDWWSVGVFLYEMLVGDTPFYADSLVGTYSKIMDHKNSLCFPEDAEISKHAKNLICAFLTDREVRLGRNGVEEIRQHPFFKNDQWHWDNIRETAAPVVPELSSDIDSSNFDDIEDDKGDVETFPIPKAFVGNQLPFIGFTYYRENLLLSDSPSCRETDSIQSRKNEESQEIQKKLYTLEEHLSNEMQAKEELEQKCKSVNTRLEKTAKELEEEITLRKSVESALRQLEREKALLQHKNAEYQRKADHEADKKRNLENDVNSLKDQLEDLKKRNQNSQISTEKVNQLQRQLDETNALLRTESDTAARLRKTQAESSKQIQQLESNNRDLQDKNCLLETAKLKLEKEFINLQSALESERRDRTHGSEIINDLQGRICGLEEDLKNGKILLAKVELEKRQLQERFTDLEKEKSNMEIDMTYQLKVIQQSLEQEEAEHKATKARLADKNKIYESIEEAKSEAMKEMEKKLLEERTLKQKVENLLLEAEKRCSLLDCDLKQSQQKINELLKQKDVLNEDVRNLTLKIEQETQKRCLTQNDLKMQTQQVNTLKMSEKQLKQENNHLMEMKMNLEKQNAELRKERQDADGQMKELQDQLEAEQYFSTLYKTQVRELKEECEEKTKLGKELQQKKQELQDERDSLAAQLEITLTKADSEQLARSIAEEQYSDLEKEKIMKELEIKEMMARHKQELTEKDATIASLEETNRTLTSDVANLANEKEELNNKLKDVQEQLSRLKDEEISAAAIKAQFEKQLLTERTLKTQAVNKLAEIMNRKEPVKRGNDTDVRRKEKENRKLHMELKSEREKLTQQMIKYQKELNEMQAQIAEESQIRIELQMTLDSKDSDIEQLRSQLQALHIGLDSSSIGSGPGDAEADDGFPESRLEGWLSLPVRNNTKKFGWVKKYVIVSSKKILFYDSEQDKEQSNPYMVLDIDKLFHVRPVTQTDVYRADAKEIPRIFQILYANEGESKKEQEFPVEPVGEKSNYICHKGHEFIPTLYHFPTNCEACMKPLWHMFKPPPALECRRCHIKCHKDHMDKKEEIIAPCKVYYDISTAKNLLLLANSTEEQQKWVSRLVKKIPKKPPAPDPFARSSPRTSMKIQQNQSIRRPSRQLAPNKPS

IC50 [nM] | SMILES
500 to 5000 | CCC(C)(C)NC(=O)C(N)c1ccc(C(=O)Nc2ccncc2)cc1 (stereo not drawn)
< 500 | CC(NC(=O)C(N)c1ccc(C(=O)Nc2ccncc2)cc1)c1ccccc1 (stereo not drawn)
< 500 | COc1ccc(OC)c(S(=O)(=O)NCC(N)c2ccc(C(=O)Nc3ccncc3)cc2)c1 (stereo not drawn)
< 500 | COc1ccc(CNC(=O)C(N)c2ccc(C(=O)Nc3ccncc3)cc2)cc1 (stereo not drawn)
< 500 | NC(CC(=O)N1CCc2ccc(F)cc2C1)c1ccc(C(=O)Nc2ccncc2)cc1 (stereo not drawn)
500 to 5000 | NC(c1ccc(C(=O)Nc2ccncc2)cc1)C1CCCN1S(=O)(=O)c1ccc(Cl)cc1 (stereo not drawn)
< 500 | COc1ccc(S(=O)(=O)N(C)C[C@@H](N)c2ccc(C(=O)Nc3ccncc3)cc2)cc1
500 to 5000 | NC(CNS(=O)(=O)c1ccc(Oc2ccccc2)cc1)c1ccc(C(=O)Nc2ccncc2)cc1 (stereo not drawn)
< 500 | NC(C(=O)NCCc1ccc(F)cc1)c1ccc(C(=O)Nc2ccncc2)cc1 (stereo not drawn)
< 500 | NC(CC(=O)N1CCCC(CO)C1)c1ccc(C(=O)Nc2ccncc2)cc1 (stereo not drawn)
500 to 5000 | Cc1ccc(CN2CCC(NC(=O)C(N)c3ccc(C(=O)Nc4ccncc4)cc3)CC2)s1 (stereo not drawn)
500 to 5000 | CS(=O)(=O)NCCNC(=O)C(N)c1ccc(C(=O)Nc2ccncc2)cc1 (stereo not drawn)
500 to 5000 | Cc1nn(C)c(Cl)c1S(=O)(=O)NCC(N)c1ccc(C(=O)Nc2ccncc2)cc1 (stereo not drawn)
500 to 5000 | N[C@@H](C(=O)NCc1ccccc1)c1ccc(C(=O)Nc2ccncc2)cc1
500 to 5000 | NC(C(=O)NCCn1cccn1)c1ccc(C(=O)Nc2ccncc2)cc1 (stereo not drawn)
< 500 | NC(CC(=O)N1CCCCC1c1ccc(F)cc1)c1ccc(C(=O)Nc2ccncc2)cc1 (stereo not drawn)
< 500 | NC(CNS(=O)(=O)c1cccc2nonc12)c1ccc(C(=O)Nc2ccncc2)cc1 (stereo not drawn)
< 500 | Cc1cccc(S(=O)(=O)NCC(N)c2ccc(C(=O)Nc3ccncc3)cc2)c1 (stereo not drawn)
5000 to 50000 | COc1ccc(S(=O)(=O)N(C)C[C@H](N)c2ccc(C(=O)Nc3ccncc3)cc2)cc1

IC50 [nM] | SMILES
< 500 | NC(CNS(=O)(=O)c1cccc2nsnc12)c1ccc(C(=O)Nc2ccncc2)cc1 (stereo not drawn)
< 500 | Cc1ccc(S(=O)(=O)NCC(N)c2ccc(C(=O)Nc3ccncc3)cc2)cc1 (stereo not drawn)
500 to 5000 | CN(CC(N)c1ccc(C(=O)Nc2ccncc2)cc1)S(=O)(=O)c1ccccc1F (stereo not drawn)
500 to 5000 | NC(CC(=O)N1CCc2c([nH]c3ccccc23)C1c1cccc(Cl)c1)c1ccc(C(=O)Nc2ccncc2)cc1 (stereo not drawn)
< 500 | NC(CC(=O)N1CCN(Cc2ccc(F)cc2)CC1)c1ccc(C(=O)Nc2ccncc2)cc1 (stereo not drawn)
< 500 | CS(=O)(=O)NCC(N)c1ccc(C(=O)Nc2ccncc2)cc1 (stereo not drawn)
500 to 5000 | NC(CNS(=O)(=O)c1cccc(Oc2ccccc2)c1)c1ccc(C(=O)Nc2ccncc2)cc1 (stereo not drawn)
< 500 | NC(CNS(=O)(=O)c1ccccc1)c1ccc(C(=O)Nc2ccncc2)cc1 (stereo not drawn)
< 500 | NC(CC(=O)N1CCCCC1c1ccccc1)c1ccc(C(=O)Nc2ccncc2)cc1 (stereo not drawn)
500 to 5000 | CC(C)C(C)NC(=O)C(N)c1ccc(C(=O)Nc2ccncc2)cc1 (stereo not drawn)
< 500 | NC(C(=O)NCc1ccccc1Cl)c1ccc(C(=O)Nc2ccncc2)cc1 (stereo not drawn)
< 500 | NC(CC(=O)N1CCCCC1c1ccc(Cl)cc1)c1ccc(C(=O)Nc2ccncc2)cc1 (stereo not drawn)
< 500 | NC(CC(=O)N1Cc2ccccc2C1)c1ccc(C(=O)Nc2ccncc2)cc1 (stereo not drawn)
< 500 | NC(CC(=O)N1CCC(c2c[nH]c3ccccc23)CC1)c1ccc(C(=O)Nc2ccncc2)cc1 (stereo not drawn)
500 to 5000 | NC(C(=O)N1CCC(c2ccccc2)CC1)c1ccc(C(=O)Nc2ccncc2)cc1 (stereo not drawn)
500 to 5000 | COCC(C)NC(=O)C(N)c1ccc(C(=O)Nc2ccncc2)cc1 (stereo not drawn)
< 500 | N[C@H](CC(=O)N1CCC[C@H]1c1cccc(F)c1)c1ccc(C(=O)Nc2ccncc2)cc1
500 to 5000 | NC(C(=O)NCc1ccccn1)c1ccc(C(=O)Nc2ccncc2)cc1 (stereo not drawn)

Second part, the molecule before the results:

SMILES | IC50 [nM]
NC(c1ccc(C(=O)Nc2ccncc2)cc1)C1CCCN1S(=O)(=O)c1ccc(F)cc1 (stereo not drawn) | 500 to 5000
NC(CC(=O)N1CCCC1c1cc(F)ccc1F)c1ccc(C(=O)Nc2ccncc2)cc1 (stereo not drawn) | < 500
CC[C@H](NC(=O)C(N)c1ccc(C(=O)Nc2ccncc2)cc1)c1ccccc1 (stereo partly drawn) | 500 to 5000
CN(CC(N)c1ccc(C(=O)Nc2ccncc2)cc1)S(=O)(=O)c1cccc(Cl)c1 (stereo not drawn) | 500 to 5000
NC(CC(=O)N1CCC(c2nc3ccccc3o2)CC1)c1ccc(C(=O)Nc2ccncc2)cc1 (stereo not drawn) | < 500
N[C@H](CC(=O)N1CCC[C@@H]1c1cccc(F)c1)c1ccc(C(=O)Nc2ccncc2)cc1 | < 500
NC(CC(=O)N1CCCCC1c1cccc2ccccc12)c1ccc(C(=O)Nc2ccncc2)cc1 (stereo not drawn) | < 500
NC(CNS(=O)(=O)c1ccccc1F)c1ccc(C(=O)Nc2ccncc2)cc1 (stereo not drawn) | < 500
N[C@H](C(=O)NCc1ccccc1)c1ccc(C(=O)Nc2ccncc2)cc1 | < 500
COc1ccc(S(=O)(=O)N(C)CC(N)c2ccc(C(=O)Nc3ccncc3)cc2)cc1 (stereo not drawn) | < 500
COc1cccc(C2CCCCN2C(=O)CC(N)c2ccc(C(=O)Nc3ccncc3)cc2)c1 (stereo not drawn) | < 500
NC(CC(=O)N1CCN(C(=O)c2ccco2)CC1)c1ccc(C(=O)Nc2ccncc2)cc1 (stereo not drawn) | < 500
NC(C(=O)NCCN1CCOCC1)c1ccc(C(=O)Nc2ccncc2)cc1 (stereo not drawn) | 500 to 5000
NC(CNS(=O)(=O)c1cccc(-c2ccccc2)c1)c1ccc(C(=O)Nc2ccncc2)cc1 (stereo not drawn) | 500 to 5000
NC(CC(=O)N1CCc2c(Cl)cccc2C1)c1ccc(C(=O)Nc2ccncc2)cc1 (stereo not drawn) | < 500
NC(CNS(=O)(=O)c1ccc(F)cc1)c1ccc(C(=O)Nc2ccncc2)cc1 (stereo not drawn) | < 500
NC(C(=O)NCCc1cccs1)c1ccc(C(=O)Nc2ccncc2)cc1 (stereo not drawn) | < 500
NC(C(=O)N1CCCC1c1cccc(F)c1)c1ccc(C(=O)Nc2ccncc2)cc1 (stereo not drawn) | < 500

SMILES | IC50 [nM]
NC(C(=O)N1CCC(Cc2ccccc2)CC1)c1ccc(C(=O)Nc2ccncc2)cc1 (stereo not drawn) | 500 to 5000
NC(C(=O)N1CC=C(c2ccc(F)cc2)CC1)c1ccc(C(=O)Nc2ccncc2)cc1 (stereo not drawn) | 500 to 5000
COc1ccc(S(=O)(=O)NCC(N)c2ccc(C(=O)Nc3ccncc3)cc2)cc1 (stereo not drawn) | < 500
NC(C(=O)N1CCN(Cc2ccc(F)cc2)CC1)c1ccc(C(=O)Nc2ccncc2)cc1 (stereo not drawn) | 500 to 5000
Cc1noc(C)c1S(=O)(=O)NCC(N)c1ccc(C(=O)Nc2ccncc2)cc1 (stereo not drawn) | < 500
NC(c1ccc(C(=O)Nc2ccncc2)cc1)C1CCCN1S(=O)(=O)c1cccc(F)c1 (stereo not drawn) | 500 to 5000
NC(C(=O)NC1Cc2ccccc2C1)c1ccc(C(=O)Nc2ccncc2)cc1 (stereo not drawn) | < 500
NC(CC(=O)N1CCCC1c1ccc(Cl)c(Cl)c1)c1ccc(C(=O)Nc2ccncc2)cc1 (stereo not drawn) | < 500
CCNC(=O)C(N)c1ccc(C(=O)Nc2ccncc2)cc1 (stereo not drawn) | 500 to 5000
NC(CNS(=O)(=O)c1cccc(Cl)c1)c1ccc(C(=O)Nc2ccncc2)cc1 (stereo not drawn) | < 500
NC(C(=O)NCC1CC1)c1ccc(C(=O)Nc2ccncc2)cc1 (stereo not drawn) | 500 to 5000
COCCNC(=O)C(N)c1ccc(C(=O)Nc2ccncc2)cc1 (stereo not drawn) | 500 to 5000
CN(CC(N)c1ccc(C(=O)Nc2ccncc2)cc1)S(=O)(=O)c1cccc(F)c1 (stereo not drawn) | 500 to 5000
NC(C(=O)NCc1ccncc1)c1ccc(C(=O)Nc2ccncc2)cc1 (stereo not drawn) | 500 to 5000
CCC(NC(=O)C(N)c1ccc(C(=O)Nc2ccncc2)cc1)c1ccccc1 (stereo not drawn) | < 500
CN(CC(N)c1ccc(C(=O)Nc2ccncc2)cc1)S(=O)(=O)c1ccccc1Cl (stereo not drawn) | 500 to 5000
NC(CC(=O)N1CCN(Cc2ccccc2F)CC1)c1ccc(C(=O)Nc2ccncc2)cc1 (stereo not drawn) | < 500
NC(c1ccc(C(=O)Nc2ccncc2)cc1)C1CCCN1S(=O)(=O)c1ccccc1Cl (stereo not drawn) | 500 to 5000
